Measured values: patent publication US9469652B2, “ERK inhibitors” (Eli Lilly and Company, priority 2014, dated 2016)

System: human non-small cell lung cancer cells NCI-H441 (KRAS_G12V)
Experiment: In vivo combination study, NCI-H441 NSCLC xenograft model
Conditions: single agent
Protocol: More specifically, the compound of Example 1 is tested in combination with either the pan-RAF inhibitor compound or the CDK4/6 inhibitor compound in HCT116, a KRAS mutant colorectal cancer xenograft model. Also, the compound of Example 1 is tested in combination with either the CDK4/6 inhibitor compound or DC101 in NCI-H441, A549, and NCI-H2122, KRAS mutant non-small cell lung cancer (NSCLC) xenograft models.
Combination efficacy is also tested in three KRAS mutant NSCLC xenograft models including A549 (KRAS_G12S) in SCID mice as well as NCI-H441 (KRAS_G12V) and NCI-H2122 (KRAS_G12C) in athymic nude mice. Expand human non-small cell lung cancer cells NCI-H441 (ATCC, #CRL-5807) and NCI-H2122 (ATCC, #CRL-5985) in culture, harvest and inject 5×10e^6 cells in 200 μL of 1:1 HBSS+matrigel solution subcutaneously on to the rear right flank of female athymic nude mice (20-22 gm, Harlan Laboratories). Expand human non-small cell lung cancer cells A549 (ATCC, #CC1-185) in culture, harvest and inject 5×10e^6 cells in 200 μL of 1:1 HBSS+matrigel solution subcutaneously on to the rear right flank of female CB-17 SCID mice (18-20 gm, Taconic Farms). For all cell lines, measure tumor growth and body weight twice per week beginning the seventh day after the implantation. When average tumor sizes reach 200-300 mm^3, randomize animals and group into groups of five to seven animals. Prepare test compound in an appropriate vehicle (see below) and administer by oral gavage (compound of Example 1 and the CDK4/6 inhibitor compound) or intraperitoneally (DC101) for 21 to 28 days. Tumor response is determined by tumor volume measurement performed twice a week during the course of treatment. Vehicle used in these studies is 1% HEC/0.25% Tween® 80/0.05% Antifoam. The compound of Example 1 is formulated in 1% HEC/0.25% Tween® 80/0.05% Antifoam and the CDK4/6 inhibitor compound is formulated in 1% HEC in 25 mM sodium phosphate buffer, pH 2. […] In the same NCI-H441 xenograft model, DC101 in phosphate buffer is also administered intraperitoneally twice per week (BIW) as a single agent or in combination with the compound of Example 1, 50 mpk, QD for 28 days.

Cn1nccc1Nc1nccc(-c2cc3c(s2)C(C)(C)N(CCN2CCOCC2)C3=O)n1 [Example 1, 6,6-Dimethyl-2-{2-[(1-methyl-1H-pyrazol-5-yl)amino]pyrimidin-4-yl}-5-[2-(morpholin-4-yl)ethyl]-5,6-dihydro-4H-thieno[2,3-c]pyrrol-4-one] showed a Regression % (50 mg/kg QD, oral, 28 days) of 1% and a tumor growth inhibition (50 mpk) of 101%.
